Laboratory results as given in patent US11613531B2, “Inhibitors of RHO associated coiled-coil containing protein kinase” (Kadmon Corporation, LLC, priority 2017, dated 2023).
Read-outs that look alike come from different tables or passages of the source.

Key:
[1] = system: human ACTA2 gene promoter luciferase reporter in NIH3T3 cells; experiment: NIH3T3 Acta2-promoter driven-luciferase assay; format: cell-based; details: NIH3T3, 24 h, read-out: NIH3T3 Acta2-luc, IC50
Procedure: NIH3T3 Cells Acta2-Promoter Driven-Luciferase Assay.
A NIH3T3 cell line stably expressing a luciferase reporter driven by the human ACTA2 gene promoter (−1000-1 bp) was established (NIH3T3-Acta2-luciferase). The cells were plated to confluence and treated with the test compounds plus TGFβ1 for 24 hr. Cells were then lysed and luciferase activity was measured using the LightSwitch luciferase kit from Active Motif.
In vitro activities for the compounds were measured with Z′-lyte kinase kit (ThermoFisher Scientific). The percent inhibition rate was calculated by normalizing the kinase activity value obtained with 1 μM compound treatment against DMSO control value and then applied to the formula, [1-(compound/DMSO)]×100%. IC50s were calculated using the nonlinear regression curve fit function of the GraphPad Prism software with kinase activities data measured with 9 points 2-fold serial dilution of compounds treatment. In cell pMLC IC50s were calculated with data obtained from A7R5 cell experiments. A7R5 cells were treated with 9 points 2-fold serial dilution of compounds and ppMlc (T18/S19) levels were determined to calculate cellular IC50 values of the compounds using the nonlinear regression curve fit function of the GraphPad Prism software. NIH3T3 cells stably expressing ACTA2-promoter-driven-luciferase were applied to measure ROCK compounds functional IC50s in cells. Cells were plated in 96 well plates to confluence and treated with 9 points serial dilution of compounds in combination with TGFβ1 for 24 hr. Luciferase activities were measured and compound's IC50s were calculated using the nonlinear regression curve fit function of the GraphPad Prism software.
ROCK inhibitors can be effectively rank ordered by ACTA2-promoter-driven-luciferase reporter cell assay. NIH3T3 cells stably expressing ACTA2-promoter-driven-luciferase were plated in 96 well plates to confluence and treated with 9 points serial dilution of compounds in combination with TGFβ1 for 24 hr. Luciferase activities were measured and compound's IC50s were calculated. By this assay multiple compounds of the invention gave IC50s under 200 nM.

[2] = system: ppMlc (T18/S19) levels in A7R5 cells; experiment: A7R5 in-cell ELISA (pMLC); format: cell-based, Rat; details: Rattus norvegicus, A7R5, A7R5 cells; for inhibition at 1 µM: 1 μM compound
Summary of the method: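 A7R5 rat aortic smooth muscle cells seeded 24 h, then treated 90 min with a 9-point 2-fold compound dilution series. Fixed cells probed for ppMlc (T18/S19) by colorimetric in-cell ELISA; cellular IC50 from nonlinear regression curve fit.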

[3] = biological target: Recombinant ROCK2 (amino acids 1-552) (Homo sapiens (Human), UniProt O75116); experiment: Z′-Lyte kinase assay, ROCK2; format: biochemical; details: for inhibition at 1 µM: 1 μM compound; for inhibition at 1 µM / inhibition at 0.5 µM: read-out: ROCK2 % inh. @ [conc]; for inhibition at 0.5 µM: 0.5 μM compound
Recombinant ROCK2 (amino acids 1-552), sequence (O75116 1-552): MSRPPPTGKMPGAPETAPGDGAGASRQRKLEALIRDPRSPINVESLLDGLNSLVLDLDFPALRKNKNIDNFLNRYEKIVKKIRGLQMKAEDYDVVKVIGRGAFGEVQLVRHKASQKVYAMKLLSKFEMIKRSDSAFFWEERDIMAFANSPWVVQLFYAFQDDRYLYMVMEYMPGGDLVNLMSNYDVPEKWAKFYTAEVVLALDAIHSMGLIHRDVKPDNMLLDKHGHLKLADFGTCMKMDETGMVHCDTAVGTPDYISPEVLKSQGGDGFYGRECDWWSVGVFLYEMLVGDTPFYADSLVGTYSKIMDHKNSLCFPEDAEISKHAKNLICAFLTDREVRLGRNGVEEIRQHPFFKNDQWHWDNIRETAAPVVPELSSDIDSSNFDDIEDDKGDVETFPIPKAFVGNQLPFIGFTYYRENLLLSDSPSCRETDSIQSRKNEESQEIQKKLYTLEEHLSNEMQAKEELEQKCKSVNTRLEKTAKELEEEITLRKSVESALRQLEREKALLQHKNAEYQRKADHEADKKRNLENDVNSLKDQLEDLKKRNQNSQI
Summary of the method: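 Recombinant human ROCK1 (aa 1-535) or ROCK2 (aa 1-552) activity read by Z′-Lyte kinase assay. Percent inhibition at 1 μM compound was normalized to DMSO control; IC50 from 9-point 2-fold serial dilutions by nonlinear regression.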

[4] = read-out: pMLC % inh A7R5 @ [conc]
[5] = NIH3T3 cells, plus TGFβ1 for 24 hr
[6] = 9 points 2-fold serial dilution

| Compound | IC50 ([1]; with TGFβ1, 24 hr) [nM] | IC50 [2] [nM] | inhibition at 1 µM [2, 4] [%] | inhibition at 1 µM [3] [%] | IC50 [3] [nM] | IC50 [1, 5] [nM] | inhibition at 10 µM ([2]; 10 μM compound, read-out: pMLC % inh A7R5 @ [conc]) [%] | IC50 ([2]; ppMlc (T18/S19)) [nM] | IC50 [3, 6] [nM] | inhibition at 0.5 µM [3] [%] |
| --- | --- | --- | --- | --- | --- | --- | --- | --- | --- | --- |
| Fc1cnc(N2CCC3CNCC3CC2)nc1Nc1ccc2[nH]ncc2c1 (stereo not drawn) [Example 169, N-(5-fluoro-2-(octahydropyrrolo[3,4-d]azepin-6(1H)-yl)pyrimidin-4-yl)-1H-indazol-5-amine] | 1830 | 395 | 30.9 | 99.5 | – | – | – | – | – | – |
| Fc1cnc(N2CCC3NCC3C2)nc1Nc1ccc2[nH]ncc2c1 (stereo not drawn) [Example 170, N-(2-(3,7-diazabicyclo[4.2.0]octan-3-yl)-5-fluoropyrimidin-4-yl)-1H-indazol-5-amine] | 572 | 274 | 31.5 | 99.1 | 27 | – | – | – | – | – |
| Cc1cc(Nc2ccc3[nH]ncc3c2)nc(N2CCNCC2)n1 [Example 205, N-(6-methyl-2-(piperazin-1-yl)pyrimidin-4-yl)-1H-indazol-5-amine] | – | – | – | – | – | 1280 | 55 | 415 | 61 | – |
| Cc1cc(Nc2ccc3[nH]ncc3c2)nc(N2CC3CC2CN3)n1 (stereo not drawn) [Example 211, N-(2-(2,5-diazabicyclo[2.2.1]heptan-2-yl)-6-methylpyrimidin-4-yl)-1H-indazol-5-amine] | – | – | 35.8 | 104 | – | 437 | – | 66 | – | – |
| CC1CNCCN1c1ncc(F)c(Nc2ccc3[nH]ncc3c2)n1 (stereo not drawn) [Example 216, N-(5-fluoro-2-(2-methylpiperazin-1-yl)pyrimidin-4-yl)-1H-indazol-5-amine] | – | – | 42.6 | – | – | 1380 | – | 517 | 70 | – |
| Fc1cnc(N2C3CCC2CNC3)nc1Nc1ccc2[nH]ncc2c1 [Example 221, N-(2-(3,8-diazabicyclo[3.2.1]octan-8-yl)-5-fluoropyrimidin-4-yl)-1H-indazol-5-amine] | – | – | 39.6 | – | – | 243 | – | 50 | 3.7 | – |
| Clc1cnc(N2C3CNCC2C3)nc1Nc1ccc2[nH]ncc2c1 [Example 222, N-(2-(3,6-diazabicyclo[3.1.1]heptan-6-yl)-5-chloropyrimidin-4-yl)-1H-indazol-5-amine] | 520 | 122 | 58.2 | 102 | 4.9 | – | – | – | – | – |
| Cc1nc(N2CC3CC2CN3)nc(Nc2ccc3[nH]ncc3c2)c1F (stereo not drawn) [Example 277, N-(2-(2,5-diazabicyclo[2.2.1]heptan-2-yl)-5-fluoro-6-methylpyrimidin-4-yl)-1H-indazol-5-amine] | 245 | 45 | 63.4 | – | 3.7 | – | – | – | – | – |
| c1cc2[nH]ncc2cc1Nc1nc(N2C3CCC2CNC3)nc2c1COC2 [Example 278, 2-(3,8-diazabicyclo[3.2.1]octan-8-yl)-N-(1H-indazol-5-yl)-5,7-dihydrofuro[3,4-d]pyrimidin-4-amine] | 1440 | 199 | 59.9 | – | 6.6 | – | – | – | – | – |
| Fc1cc2[nH]ncc2cc1Nc1nc(N2C3CNCC2C3)ncc1Cl [Example 295, N-(2-(3,6-diazabicyclo[3.1.1]heptan-6-yl)-5-chloropyrimidin-4-yl)-6-fluoro-1H-indazol-5-amine] | 2210 | 646 | – | – | 45 | – | – | – | – | 98 |
| Fc1cc2[nH]ncc2cc1Nc1nc(N2C3CCC2CNC3)ncc1Cl [Example 296, N-(2-(3,8-diazabicyclo[3.2.1]octan-8-yl)-5-chloropyrimidin-4-yl)-6-fluoro-1H-indazol-5-amine] | 3120 | 860 | – | – | 110 | – | – | – | – | 90 |
| COc1cc2[nH]ncc2cc1Nc1nc(N2C3CNCC2C3)ncc1Cl [Example 297, N-(2-(3,6-diazabicyclo[3.1.1]heptan-6-yl)-5-chloropyrimidin-4-yl)-6-methoxy-1H-indazol-5-amine] | 3790 | 1430 | – | – | 84 | – | – | – | – | 87 |
| FC(F)(F)c1cnc(N2C3CCC2CNC3)nc1Nc1ccc2[nH]ncc2c1 [Example 298, N-(2-(3,8-diazabicyclo[3.2.1]octan-8-yl)-5-(trifluoromethyl)pyrimidin-4-yl)-1H-indazol-5-amine] | > 5000 | 1520 | – | – | 75 | – | – | – | – | – |
| CN1CCc2nc(N3C4CCC3CNC4)nc(Nc3ccc4[nH]ncc4c3)c2C1 [Example 299, 2-(3,8-diazabicyclo[3.2.1]octan-8-yl)-N-(1H-indazol-5-yl)-6-methyl-5,6,7,8-tetrahydropyrido[4,3-d]pyrimidin-4-amine] | > 10000 | 1200 | – | – | 34 | – | – | – | – | 70 |
| c1cc(-c2cn[nH]c2)ccc1Nc1nc(N2C3CNCC2C3)nc2c1CNC2 [Example 300, N-(4-(1H-pyrazol-4-yl)phenyl)-2-(3,6-diazabicyclo[3.1.1]heptan-6-yl)-6,7-dihydro-5H-pyrrolo[3,4-d]pyrimidin-4-amine] | > 10000 | > 10000 | – | – | – | – | – | – | – | 68 |
| Cc1nc(N2C3CNCC2C3)nc(Nc2ccc3[nH]ncc3c2)c1F [Example 301, N-(2-(3,6-diazabicyclo[3.1.1]heptan-6-yl)-5-fluoro-6-methylpyrimidin-4-yl)-1H-indazol-5-amine] | 178 | 16 | – | – | 0.4 | – | – | – | – | 100 |
| FC(F)(F)c1cnc(N2C3CNCC2C3)nc1Nc1ccc2[nH]ncc2c1 [Example 304, N-(2-(3,6-diazabicyclo[3.1.1]heptan-6-yl)-5-(trifluoromethyl)pyrimidin-4-yl)-1H-indazol-5-amine] | 980 | 413 | – | – | 17 | – | – | – | – | – |
| COc1cc2[nH]ncc2cc1Nc1nc(N2C3CCC2CNC3)ncc1Cl [Example 305, N-(2-(3,8-diazabicyclo[3.2.1]octan-8-yl)-5-chloropyrimidin-4-yl)-6-methoxy-1H-indazol-5-amine] | 3810 | 1410 | – | – | 160 | – | – | – | – | 83 |
| c1cc2[nH]ncc2cc1Nc1nc(N2C3CNCC2C3)nc2c1COCC2 [Example 307, 2-(3,6-diazabicyclo[3.1.1]heptan-6-yl)-N-(1H-indazol-5-yl)-7,8-dihydro-5H-pyrano[4,3-d]pyrimidin-4-amine] | 2050 | 977 | – | – | 2.6 | – | – | – | – | – |
| c1cc2[nH]ncc2cc1Nc1nc(N2C3CNCC2C3)ncc1C1CC1 [Example 308, N-(2-(3,6-diazabicyclo[3.1.1]heptan-6-yl)-5-cyclopropylpyrimidin-4-yl)-1H-indazol-5-amine] | 1240 | 377 | – | – | 15 | – | – | – | – | – |
| c1cc2[nH]ncc2cc1Nc1nc(N2C3CCC2CNC3)ncc1C1CC1 [Example 309, N-(2-(3,8-diazabicyclo[3.2.1]octan-8-yl)-5-cyclopropylpyrimidin-4-yl)-1H-indazol-5-amine] | 3330 | 917 | – | – | 117 | – | – | – | – | – |
| c1cc2[nH]ncc2cc1Nc1nc(N2C3CNCC2C3)nc2c1CNC2 [Example 310, 2-(3,6-diazabicyclo[3.1.1]heptan-6-yl)-N-(1H-indazol-5-yl)-6,7-dihydro-5H-pyrrolo[3,4-d]pyrimidin-4-amine] | > 5000 | > 5000 | – | – | 3.8 | – | – | – | – | – |
| Cc1c(Cl)nc(N2C3CCC2CNC3)nc1Nc1ccc2[nH]ncc2c1 [Example 315, N-(2-(3,8-diazabicyclo[3.2.1]octan-8-yl)-6-chloro-5-methylpyrimidin-4-yl)-1H-indazol-5-amine] | 1950 | 168 | – | – | 26 | – | – | – | – | – |
| Fc1cnc(N2CC3CNCC(C2)O3)nc1Nc1ccc2[nH]ncc2c1 [Example 324, N-(2-((1,5)-9-oxa-3,7-diazabicyclo[3.3.1]nonan-3-yl)-5-fluoropyrimidin-4-yl)-1H-indazol-5-amine] | 1370 | 2080 | – | – | 268 | – | – | – | – | 71 |
